The text below walks through data of paper PMC11049802 (International Journal of Molecular Sciences, 2024).

The structures appear in SMILES notation.

For the experiment, the target named is E. coli nitroreductase A (NfsA) (Escherichia coli, UniProt P17117). The experiment is described as follows: steady-state kinetics; competitive inhibition versus NADPH (also reduced as a substrate). Format: biochemical.
Chain of E. coli nitroreductase A (NfsA) (P17117 whole entry): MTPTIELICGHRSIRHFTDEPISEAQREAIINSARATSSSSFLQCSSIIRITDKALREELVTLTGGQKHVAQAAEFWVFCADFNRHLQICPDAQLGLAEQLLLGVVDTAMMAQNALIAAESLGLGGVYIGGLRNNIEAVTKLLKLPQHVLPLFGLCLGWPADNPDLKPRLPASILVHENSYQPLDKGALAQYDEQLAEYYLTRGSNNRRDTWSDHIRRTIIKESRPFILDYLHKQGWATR

The term Ki denotes the dissociation constant of the complex between target and ligand, obtained from inhibition or displacement. High values mean a looser hold on the target, low ones a stronger hold on the target. The compound `CC(=O)c1ccc[n+]([C@@H]2O[C@H](COP(=O)([O-])OP(=O)(O)OC[C@H]3O[C@@H](n4cnc5c(N)ncnc54)[C@H](OP(=O)(O)O)[C@@H]3O)[C@@H](O)[C@H]2O)c1` [APADP+] had a Ki of 150 ± 12 µM.
